In US10829473B2, “Modulators of the cystic fibrosis transmembrane conductance regulator protein and methods of use” (AbbVie Overseas S.Á.R.L., priority 2017, dated 2020):
Read-outs that look alike come from different tables or passages of the source. Marks after values point to notes of the source that are not given here.

Molecular target: T1, F508delCFTR (Homo sapiens, UniProt P13569, DEL508-508)
T1 construct: expressed in transfected cells; host or cells: CFBE41o- human lung derived epithelial cells (CFBE41o-F508delCFTR-HRP), doxycycline-inducible
T1 sequence (P13569 with tags, fused parts or gaps DEL508-508): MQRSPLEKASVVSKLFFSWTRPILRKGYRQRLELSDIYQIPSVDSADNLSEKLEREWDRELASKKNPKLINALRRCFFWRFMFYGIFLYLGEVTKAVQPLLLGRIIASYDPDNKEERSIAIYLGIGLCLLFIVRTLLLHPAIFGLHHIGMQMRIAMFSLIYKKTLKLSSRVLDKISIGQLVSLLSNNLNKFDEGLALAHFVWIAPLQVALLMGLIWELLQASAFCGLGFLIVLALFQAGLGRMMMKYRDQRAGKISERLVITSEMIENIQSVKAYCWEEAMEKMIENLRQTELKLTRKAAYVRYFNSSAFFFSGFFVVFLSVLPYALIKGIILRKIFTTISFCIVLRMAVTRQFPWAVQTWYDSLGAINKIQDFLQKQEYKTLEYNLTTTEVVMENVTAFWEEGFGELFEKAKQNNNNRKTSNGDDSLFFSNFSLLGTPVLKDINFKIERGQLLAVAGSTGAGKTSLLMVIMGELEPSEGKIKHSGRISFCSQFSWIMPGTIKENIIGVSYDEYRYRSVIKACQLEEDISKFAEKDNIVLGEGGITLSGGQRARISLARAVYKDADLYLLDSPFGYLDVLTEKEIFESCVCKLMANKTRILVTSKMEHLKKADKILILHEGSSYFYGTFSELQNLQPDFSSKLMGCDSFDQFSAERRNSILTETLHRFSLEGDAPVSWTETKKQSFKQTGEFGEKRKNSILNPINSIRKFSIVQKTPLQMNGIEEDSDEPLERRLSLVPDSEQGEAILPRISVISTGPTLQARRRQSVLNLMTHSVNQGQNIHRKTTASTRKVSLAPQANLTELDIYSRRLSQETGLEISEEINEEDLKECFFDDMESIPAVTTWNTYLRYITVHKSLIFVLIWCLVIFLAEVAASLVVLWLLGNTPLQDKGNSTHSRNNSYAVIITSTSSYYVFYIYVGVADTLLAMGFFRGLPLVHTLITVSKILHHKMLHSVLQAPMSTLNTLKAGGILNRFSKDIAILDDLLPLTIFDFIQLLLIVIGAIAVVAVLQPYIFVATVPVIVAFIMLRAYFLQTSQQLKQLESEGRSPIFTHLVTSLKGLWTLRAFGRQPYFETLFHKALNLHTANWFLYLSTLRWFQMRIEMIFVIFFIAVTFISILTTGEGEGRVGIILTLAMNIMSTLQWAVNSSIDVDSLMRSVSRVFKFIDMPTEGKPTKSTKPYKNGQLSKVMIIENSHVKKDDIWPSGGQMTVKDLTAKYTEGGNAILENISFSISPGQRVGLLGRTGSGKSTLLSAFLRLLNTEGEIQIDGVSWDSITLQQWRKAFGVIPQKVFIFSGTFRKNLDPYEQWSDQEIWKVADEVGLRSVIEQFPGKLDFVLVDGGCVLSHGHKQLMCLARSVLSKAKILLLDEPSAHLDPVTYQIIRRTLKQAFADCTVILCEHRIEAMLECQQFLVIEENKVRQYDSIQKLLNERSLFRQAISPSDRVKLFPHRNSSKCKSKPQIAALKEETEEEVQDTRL
Assay: Cell Surface Expression-Horse Radish Peroxidase (CSE-HRP) Assay
Format: cell-based
Settings: for Maximum % activity (with co-corrector) / Emax: maximum at any tested concentration; for Emax: read-out: Maximum % activity (without co-corrector)
Procedure, shortened: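 Corrector compounds were given as 8-point 3-fold series from 20 or 30 μM, with or without a 2 μM co-corrector, for 18-24 h at 33 °C. Surface HRP was read by luminol luminescence as % of positive control; variable-Hill-slope sigmoidal fitting gave EC50 from triplicate plates.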

[1] = test compound with co-corrector
[2] = test compound with co-corrector, read-out: EC50 (with co-corrector)
[3] = test compound without co-corrector
[4] = test compound without co-corrector, read-out: EC50 (without co-corrector)
[5] = test compound alone, without co-corrector, read-out: EC50 (without co-corrector)
[6] = with co-corrector, read-out: EC50 (with co-corrector)

Compound	Maximum % activity (with co-corrector) [1]	EC50 [2] [µM]	Emax [3] [%]	EC50 [4] [µM]	EC50 [5] [µM]	Maximum % activity (with co-corrector) (with co-corrector)	EC50 [6] [µM]	Emax (without co-corrector) [%]	EC50 (with co-corrector) [1]	EC50 (without co-corrector) [3]
COc1cc(C2(C(=O)NS(=O)(=O)c3cccc4ncccc34)CC2)c(Cl)cn1 [GII-6, 1-(5-chloro-2-methoxypyridin-4-yl)-N-(quinoline-5-sulfonyl)cyclopropane-1-carboxamide]	++ (≥150 and <350)	3 to 10	50 to 150	3 to 10						
COc1cc(C2CCC2)cc(OC)c1C1(C(=O)NS(=O)(=O)c2cccc3c2ccn3C)CC1 [II-65]					< 3	+++ (≥350)	< 3	> 150		
COc1cnc(OCC(C)C)c(C2(C(=O)NS(=O)(=O)c3cccc4nc(C)ccc34)CC2)c1 [Example GI-79, 1-[5-methoxy-2-(2-methylpropoxy)pyridin-3-yl]-N-(2-methylquinoline-5-sulfonyl)cyclopropane-1-carboxamide]	+++ (≥350)	< 3	> 150	< 3						
CCc1ccc(O[C@H]2CCOC2)c(C2(C(=O)NS(=O)(=O)c3cccc4nc(C)ccc34)CC2)c1 [II-115]					< 3	+++ (≥350)	< 3	> 150		
COc1cc(OC(C)C)c(C2(C(=O)NS(=O)(=O)c3cccc4ncccc34)CC2)cn1 [Example GI-17, 1-{6-methoxy-4-[(propan-2-yl)oxy]pyridin-3-yl}-N-(quinoline-5-sulfonyl)cyclopropane-1-carboxamide]					3 to 10	+++ (≥350)	< 3	> 150		
COc1ncc(C2CCC2)cc1C1(C(=O)NS(=O)(=O)c2cccc3nc(C)ccc23)CC1 [Example I-3, 1-(5-cyclobutyl-2-methoxypyridin-3-yl)-N-(2-methylquinoline-5-sulfonyl)cyclopropane-1-carboxamide]					< 3	+++ (≥350)	< 3	> 150		
CC(C)COc1ncc(C2CC2)cc1C1(C(=O)NS(=O)(=O)c2cccc3[nH]ccc23)CC1 [Example GI-50, 1-[5-cyclopropyl-2-(2-methylpropoxy)pyridin-3-yl]-N-(1H-indole-4-sulfonyl)cyclopropane-1-carboxamide]	+++ (≥350)	< 3	> 150	< 3						
Cc1ccc2c(S(=O)(=O)NC(=O)C3(c4cc(N(C)C)cnc4OCC(C)C)CC3)cccc2n1 [Example I-109, 1-[5-(dimethylamino)-2-(2-methylpropoxy)pyridin-3-yl]-N-(2-methylquinoline-5-sulfonyl)cyclopropane-1-carboxamide]					< 3	+++ (≥350)	< 3	> 150		
Cc1ccc2c(S(=O)(=O)NC(=O)C3(c4cc(C5CC5)cnc4N4CCCC4)CC3)cccc2n1 [Example GI-33, 1-[5-cyclopropyl-2-(pyrrolidin-1-yl)pyridin-3-yl]-N-(2-methylquinoline-5-sulfonyl)cyclopropane-1-carboxamide]	+++ (≥350)	< 3	> 150	3 to 10						
CC(C)Oc1cnc(OC(C)C)c(C2(C(=O)NS(=O)(=O)c3cccc4ncccc34)CC2)c1 [Example GI-65, 1-{2,5-bis[(propan-2-yl)oxy]pyridin-3-yl}-N-(quinoline-5-sulfonyl)cyclopropane-1-carboxamide]	+++ (≥350)	< 3	> 150	< 3						
CCOc1ccc(C)cc1C1(C(=O)NS(=O)(=O)c2cccc3nc(NC)ccc23)CC1 [II-84]					< 3	+++ (≥350)	< 3	> 150		
COc1ncc(C(F)(F)F)cc1C1(C(=O)NS(=O)(=O)c2cccc3ncc(C)n23)CC1 [II-19]					3 to 10	+++ (≥350)	3 to 10	50 to 150		
COC[C@@H](C)Oc1ccc(C)cc1C1(C(=O)NS(=O)(=O)c2cccc3nc(C)ccc23)CC1 [Example I-107, 1-(2-{[(2R)-1-methoxypropan-2-yl]oxy}-5-methylphenyl)-N-(2-methylquinoline-5-sulfonyl)cyclopropane-1-carboxamide]					< 3	+++ (≥350)	< 3	> 150		
COc1ncc(C2CCC2)cc1C1(C(=O)NS(=O)(=O)c2cccc3ccn(C)c23)CC1 [Example I-20, 1-(5-cyclobutyl-2-methoxypyridin-3-yl)-N-(1-methyl-1H-indole-7-sulfonyl)cyclopropane-1-carboxamide]					< 3	+++ (≥350)	< 3	> 150		
CCc1ccc(O[C@@H]2CCOC2)c(C2(C(=O)NS(=O)(=O)c3cccc4ncccc34)CC2)c1 [Example I-118, 1-(5-ethyl-2-{[(3R)-oxolan-3-yl]oxy}phenyl)-N-(quinoline-5-sulfonyl)cyclopropane-1-carboxamide]					< 3	+++ (≥350)	< 3	> 150		
COc1ccc(C2CCC2)cc1C1(C(=O)NS(=O)(=O)c2cccc3[nH]ccc23)CC1 [Example I-55, 1-(5-cyclobutyl-2-methoxyphenyl)-N-(1H-indole-4-sulfonyl)cyclopropane-1-carboxamide]					< 3	+++ (≥350)	< 3	> 150		
COc1ncc(C(F)(F)F)cc1C1(C(=O)NS(=O)(=O)c2cccc3ccn(C)c23)CC1 [II-17]					< 3	+++ (≥350)	< 3	> 150		
CCc1ccc(O[C@H](C)COC)c(C2(C(=O)NS(=O)(=O)c3cccc4nc(C)ccc34)CC2)c1 [Example I-112, 1-(5-ethyl-2-{[(2R)-1-methoxypropan-2-yl]oxy}phenyl)-N-(2-methylquinoline-5-sulfonyl)cyclopropane-1-carboxamide]					< 3	+++ (≥350)	< 3	> 150		

Further lines, results first:

Maximum % activity (with co-corrector) [1]	EC50 [2] [µM]	Emax [3] [%]	EC50 [4] [µM]	EC50 [5] [µM]	Maximum % activity (with co-corrector) (with co-corrector)	EC50 [6] [µM]	Emax (without co-corrector) [%]	EC50 (with co-corrector) [1]	EC50 (without co-corrector) [3]	Compound
				3 to 10	++ (≥150 and <350)	3 to 10	< 50			COc1ccc(C2(OC)COC2)cc1C1(C(=O)NS(=O)(=O)c2cccc3ncccc23)CC1 [Example III-128, 1-[2-methoxy-5-(3-methoxyoxetan-3-yl)phenyl]-N-(quinoline-5-sulfonyl)cyclopropane-1-carboxamide]
				3 to 10	+++ (≥350)	3 to 10	> 150			COc1cccc(C)c1C1(C(=O)NS(=O)(=O)c2cccc3c2ccn3C)CC1 [Example III-102]
				< 3	+++ (≥350)	< 3	> 150			CCc1cccc(OC)c1C1(C(=O)NS(=O)(=O)c2cccc3nc(C)ccc23)CC1 [Example III-133, 1-(2-ethyl-6-methoxyphenyl)-N-(2-methylquinoline-5-sulfonyl)cyclopropane-1-carboxamide]
				3 to 10	++ (≥150 and <350)	3 to 10	< 50			Cc1ccccc1S(=O)(=O)NC(=O)C1(c2ccc(Cl)cc2)CC1 [Example III-88, 1-(4-chlorophenyl)-N-(2-methylbenzene-1-sulfonyl)cyclopropane-1-carboxamide]
				3 to 10	++ (≥150 and <350)	3 to 10	< 50			O=C(NS(=O)(=O)c1cccc(Cl)c1)C1(c2ccc(Cl)cc2Cl)CC1 [Example III-26, N-(3-chlorobenzene-1-sulfonyl)-1-(2,4-dichlorophenyl)cyclopropane-1-carboxamide]
				> 10	++ (≥150 and <350)	3 to 10	< 50			O=C(NS(=O)(=O)c1ccc2c(c1)CCC2)C1(c2ccc(Cl)cc2Cl)CC1 [Example III-8, 1-(2,4-dichlorophenyl)-N-(2,3-dihydro-1H-indene-5-sulfonyl)cyclopropane-1-carboxamide]
++ (≥150 and <350)		< 50						++^a	++^a	CC(C)COc1cnc(Cl)c(C2(C(=O)NS(=O)(=O)c3cccc4ncccc34)CC2)c1 [GIII-5]
				> 10	+ (<150)	< 3	< 50			O=C(O)c1ccc(Cl)cc1S(=O)(=O)NC(=O)C1(c2ccc(Cl)cc2Cl)CC1 [Example III-68, 4-chloro-2-{[l-(2,4-dichlorophenyl)cyclopropane-1-carbonyl]sulfamoyl}benzoic acid]
				> 10	+ (<150)	> 10	< 50			O=C(NS(=O)(=O)Cc1ccccc1)C1(c2ccc(Cl)c(Cl)c2)CC1 [Example III-115, 1-(3,4-dichlorophenyl)-N-(phenylmethanesulfonyl)cyclopropane-1-carboxamide]
				> 10	++ (≥150 and <350)	3 to 10	< 50			O=C(OCc1ccccc1)N1CCC(S(=O)(=O)NC(=O)C2(c3ccc(Cl)cc3Cl)CC2)CC1 [Example III-22, benzyl 4-{[1-(2,4-dichlorophenyl)cyclopropane-1-carbonyl]sulfamoyl}piperidine-1-carboxylate]
